From patent US10036068B1, “Diagnosis, prognosis, and treatment of myocardial infarction” (Vanderbilt University, priority 2012, dated 2018)

Tests used:
Assay type in all cases: cell-based
human platelet [1] = assay: PGE2 effect on human platelet aggregation and dense granule release, light transmission aggregometry; conditions: agonist concentrations producing full activation of the platelets (max); even micromolar PGE2; FIG. 1
human platelet [2] = assay: as above
Excerpt: (§1) This Examples describes a study conducted to characterize the regulation of thromboxane-dependent human platelet activation by PGE2, and particularly nanomolar concentrations of PGE2. Platelets were collected from individuals and studied by light transmission aggregometry. Next, it was observed how low nanomolar concentrations of PGE2 effect aggregation and dense granule release induced by sub-maximal concentrations of an agonist of the thromboxane receptor (U46,619), thrombin, collagen, and ADP.

thromboxane receptor = target: T1, thromboxane receptor (Homo sapiens, UniProt P21731); assay: U46,619 dose-response (aggregation, ATP release) in responder and non-responder samples; conditions: responders vs non-responders; FIG. 4
T1 construct: Platelets were collected from individuals and studied by light transmission aggregometry; endogenous in cells; host or cells: human platelets from responder and non-responder individuals
T1 sequence (P21731 1-343): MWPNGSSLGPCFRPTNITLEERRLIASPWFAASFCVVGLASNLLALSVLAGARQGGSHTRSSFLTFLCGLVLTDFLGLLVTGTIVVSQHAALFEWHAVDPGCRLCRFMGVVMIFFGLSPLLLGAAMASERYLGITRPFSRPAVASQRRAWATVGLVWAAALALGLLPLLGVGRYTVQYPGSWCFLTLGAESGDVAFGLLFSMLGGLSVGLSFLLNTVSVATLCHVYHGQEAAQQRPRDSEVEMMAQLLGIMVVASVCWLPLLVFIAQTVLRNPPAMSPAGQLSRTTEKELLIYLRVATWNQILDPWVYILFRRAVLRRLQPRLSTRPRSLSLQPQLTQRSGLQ
Excerpt: FIG. 4 includes plots of maximal aggregation (left) and ATP release (right) as a function of U46,610 concentration for both responder and non-responder individuals, and showing that there is little to no difference in U46,619 dose-response between the different phenotypic groups.
as §1
Samples from responders and non-responders were also exposed to different doses of U46,619.

SMILES	effect on aggregation or granule release (human platelet [1])	individuals with strong inhibition of platelet activity in response to PGE2 (human platelet [2]; 76 individuals, FIG. 2)	individuals without significant inhibition of platelet aggregation in response to PGE2 (non-responders) (human platelet [2]; 76 individuals, FIG. 2)	partial responders to PGE2 (human platelet [2]; 76 individuals, FIG. 2)	effect on ADP-induced aggregation (human platelet [2]; FIG. 5)	effect on U46,610 aggregation (human platelet [2]; FIG. 5)	effect on collagen-induced aggregation (human platelet [2]; FIG. 5)	individuals in whom PGE2 affected the timing but not the final magnitude of aggregation (partial responders) (human platelet [2]; nanomolar PGE2)	individuals in whom PGE2 did not have detectable effects (nonresponders) (human platelet [2]; nanomolar PGE2)	individuals in whom PGE2 inhibits platelet aggregation (responders) (human platelet [2]; nanomolar PGE2, aggregation induced by U46,619 and PAR4-AP)	aggregation and dense granule release induced by sub-maximal U46,619 and thrombin (human platelet [2]; nanomolar PGE2, responder populations, FIG. 3)	difference in U46,619 dose-response between phenotypic groups (thromboxane receptor)
CCCCC[C@H](O)/C=C/[C@H]1[C@H](O)CC(=O)[C@@H]1C/C=C\CCCC(=O)O [PGE2, prostaglandin E2]	did not affect either aggregation or granule release	approximately 28%	55%	17%	no effect	did have an effect	no effect	approximately 31%	approximately 42%	approximately 26%	capable of preventing aggregation and dense granule release	–
CCCCC[C@H](O)/C=C/[C@@H]1[C@@H](C/C=C\CCCC(=O)O)[C@H]2CO[C@@H]1C2 [U46,619]	–	–	–	–	–	–	–	–	–	–	–	No significant no difference
